These compounds were tested against T1, hCB1 (Homo sapiens, UniProt P21554) (assay: Agonist-induced GTP binding (GTPγ35S) assay at CB1, Example 8). Details: Table II; IC50 at CB1, GTP binding with 1 nM CP55,940; read-out: IC50.
T1 construct: made in house; host or cells: Sf9 insect cells (baculovirus), P2 membranes
Format: biochemical
Source text: As noted above, compounds provided herein are CB1 antagonists. Certain such compounds are non-competitive CB1 antagonists. In addition, or alternatively, certain compounds provided herein display CB1 specificity. CB1 antagonist activity may be confirmed using an agonist-induced GTP binding assay, such as the assay described in Example 8. Such assays employ a CB1-containing cell membrane preparation (e.g., a preparation of membranes of insect cells that recombinantly express CB1) to determine the effect of a test compound on CB1 agonist-induced GTP binding to CB1. Briefly, a first cell membrane preparation comprising CB1 is contacted with: (i) labeled GTP; (ii) a CB1 agonist; and (iii) a test compound to yield a test membrane preparation. Simultaneously, or in either order, a second cell membrane preparation comprising CB1 is contacted with: (i) labeled GTP; and (ii) a CB1 agonist to yield a control membrane preparation. The labeled GTP is preferably GTPγ^35S; a representative CB1 agonist is CP55,940. Such contact is performed under conditions that are suitable for GTP binding to CB1, such as the conditions described in Example 8. The concentrations of labeled GTP and CB1 agonist used are generally concentrations that are sufficient to result in a detectable increase in the amount of labeled GTP bound to the membrane preparation in the presence of CB1 agonist. Such concentrations may be determined by routine experimentation; representative suitable concentrations are provided in Example 8. Generally, a range of test compound concentrations is used (e.g., ranging from 10^−10M to 10^−5M).
After sufficient contact (e.g., incubation) to allow GTP binding to the membrane preparations, a signal that corresponds to (represents) the amount of bound, labeled GTP is detected (typically, unbound labeled GTP is first removed via a washing step). In other words, simultaneously or in either order: (i) a test signal that represents an amount of bound, labeled GTP in the test membrane preparation is detected; and (ii) a control signal that represents an amount of bound, labeled GTP in the control membrane preparation is detected. The nature of the signal detected is determined by the type of label used. For example, if the GTP is radioactively labeled, the signal detected is radioactive decay (e.g., via liquid scintillation spectrometry). The CB1 antagonist activity of the test compound is then determined by comparing the test signal with the control signal.
This assay can also be used to detect partial agonism mediated by antagonist compounds. A compound being analyzed in this assay is referred to herein as a “test compound.” Agonist-stimulated GTP binding activity is measured as follows: Four independent baculoviral stocks (one directing the expression of hCB1 and three directing the expression of each of the three subunits of a heterotrimeric G-protein) are used to infect a culture of Sf9 cells as described in Example 5.
Agonist-stimulated GTP binding on purified membranes (as described in Example 6) is initially assessed using the cannabinoid agonist CP55,940 to ascertain that the receptor/G-protein-alpha-beta-gamma combination(s) yield a functional response as measured by GTP binding.
P2 membranes are resuspended by Dounce homogenization (tight pestle) in GTP binding assay buffer (50 mM Tris pH 7.4, 120 mM NaCl, 5 mM MgCl2, 2 mM EGTA, 0.1% BSA, 0.1 mM bacitracin, 10 KIU/mL aprotinin, 5 μM GDP) and added to reaction tubes at a concentration of 10 μg protein/reaction tube. After adding increasing doses of the agonist CP55,940 at concentrations ranging from 10^−12 M to 10^−6 M, reactions are initiated by the addition of […] GTPγ^35S. In competition experiments, non-radiolabeled test compounds are added to separate assays at concentrations ranging from 10^−10 M to 10^−5 M along with 1 nM CP55,940 to yield a final volume of 0.25 mL. […]

T1 sequence (P21554 whole entry): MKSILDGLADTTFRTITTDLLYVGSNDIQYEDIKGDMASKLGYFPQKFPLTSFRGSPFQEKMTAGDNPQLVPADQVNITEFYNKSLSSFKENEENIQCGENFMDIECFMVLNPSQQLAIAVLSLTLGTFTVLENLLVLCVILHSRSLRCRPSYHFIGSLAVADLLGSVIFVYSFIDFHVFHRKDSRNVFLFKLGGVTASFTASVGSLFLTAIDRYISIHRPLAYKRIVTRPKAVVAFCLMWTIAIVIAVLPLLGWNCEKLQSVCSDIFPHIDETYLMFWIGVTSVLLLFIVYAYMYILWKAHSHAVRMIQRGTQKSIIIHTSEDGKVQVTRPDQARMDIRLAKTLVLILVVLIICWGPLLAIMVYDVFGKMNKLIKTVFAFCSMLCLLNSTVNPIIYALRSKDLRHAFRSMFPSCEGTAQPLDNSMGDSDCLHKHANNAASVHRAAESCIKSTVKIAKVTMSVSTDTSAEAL

| Structure (SMILES) | IC50 |
| --- | --- |
| O=C(Nc1ccc(OC(F)(F)F)cc1)Nc1cccc(OCCO)c1 [Compound 101, N-[3-(2-hydroxyethoxy)phenyl]-N′-[4-(trifluoromethoxy)phenyl]urea] | < 2000 nM |
| O=C(Nc1ccc(COc2ccccc2)cc1)Nc1ccc(OC(F)F)cc1 [Compound 102, N-[4-(dif1uoromethoxy)phenyl]-N′-[4-(phenoxymethyl)phenyl]urea] | < 2000 nM |
| O=C(Nc1ccc(OC(F)F)cc1)Nc1cccc(OC(F)F)c1 [Compound 103, N-[3-(difluoromethoxy)phenyl]-N′-[4-(difluoromethoxy)phenyl]urea] | < 2000 nM |
| O=C(Nc1ccc(OC(F)F)cc1)Nc1ccc(N2CCCC2)cc1 [Compound 104, N-[4-(difluoromethoxy)phenyl]-N′-(4-pyrrolidin-1-ylphenyl)urea] | < 2000 nM |
| O=C(Nc1ccc(OC(F)F)cc1)Nc1cc(-c2ccccc2)n[nH]1 [Compound 107, N-[4-(difluoromethoxy)phenyl]-N′-(3-phenyl-1H-pyrazol-5-yl)urea] | < 2000 nM |
| O=C(Nc1ccc(OC(F)F)cc1)Nc1cccc(Oc2ncccn2)c1 [Compound 108, N-[4-(difluoromethoxy)phenyl]-N′-[3-(pyrimidin-2-yloxy)phenyl]urea] | < 2000 nM |
| O=C(Nc1ccc(OC(F)F)cc1)Nc1ccc(S(=O)(=O)N2CCCCC2)cc1 [Compound 110, N-[4-(difluoromethoxy)phenyl]-N′-[4-(piperidin-1-ylsulfonyl)phenyl]urea] | < 2000 nM |
| O=C(Nc1ccc(OC(F)F)cc1)Nc1ccc(S(=O)(=O)N2CCCC2)cc1 [Compound 111, N-[4-(difluoromethoxy)phenyl]-N′-[4-(pyrrolidin-1-ylsulfonyl)phenyl]urea] | < 2000 nM |
| O=C(Nc1cccc(OC(F)F)c1)Nc1cccc(OC(F)F)c1 [Compound 112, N,N′-bis[3-(difluoromethoxy)phenyl]urea] | < 2000 nM |
| COc1ccc(NC(=O)Nc2ccc(OC(F)F)cc2)cn1 [Compound 113, N-[4-(difluoromethoxy)phenyl]-N′-(6-methoxypyridin-3-yl)urea] | < 2000 nM |
| Cc1n[nH]cc1-c1cccc(NC(=O)Nc2ccc(OC(F)F)cc2)c1 [Compound 116, N-[4-(difluoromethoxy)phenyl]-N′-[3-(3-methyl-1H-pyrazol-4-yl)phenyl]urea] | < 2000 nM |
| Cc1n[nH]c(C)c1-c1cccc(NC(=O)Nc2ccc(OC(F)F)cc2)c1 [Compound 117, N-[4-(difluoromethoxy)phenyl]-N′-[3-(3,5-dimethyl-1H-pyrazol-4-yl)phenyl]urea] | < 2000 nM |
| COc1nc(-c2cccc(NC(=O)Nc3ccc(OC(F)F)cc3)c2)ncc1C(F)(F)F [Compound 118, N-[4-(difluoromethoxy)phenyl]-N′-{3-[4-methoxy-5-(trifluoromethyl)pyrimidin-2-yl]phenyl}urea] | < 2000 nM |
| COc1ncc(C(F)(F)F)c(-c2cccc(NC(=O)Nc3ccc(OC(F)F)cc3)c2)n1 [Compound 119, N-[4-(difluoromethoxy)phenyl]-N′-{3-[2-methoxy-5-(trifluoromethyl)pyrimidin-4-yl]phenyl}urea] | < 2000 nM |
| COc1ccc(C(F)(F)F)c(-c2cccc(NC(=O)Nc3ccc(OC(F)F)cc3)c2)n1 [Compound 121, N-[4-(difluoromethoxy)phenyl]-N′-{3-[6-methoxy-3-(trifluoromethyl)pyridin-2-yl]phenyl}urea] | < 2000 nM |
| COc1ccc(-c2cccc(NC(=O)Nc3ccc(OC(F)F)cc3)c2)nc1Cl [Compound 123, N-[3-(6-chloro-5-methoxypyridin-2-yl)phenyl]-N′-[4-(difluoromethoxy)phenyl]urea] | < 2000 nM |
| CCc1ccc(NC(=O)Nc2cnc3ccccc3c2)cc1 [Compound 125, N-(4-ethylphenyl)-N′-quinolin-3-ylurea] | < 2000 nM |
| O=C(Nc1ccc(OC(F)F)cc1)Nc1cnc2ccccc2c1 [Compound 126, N-[4-(difluoromethoxy)phenyl]-N′-quinolin-3-ylurea] | < 2000 nM |
| CCOc1ccc(NC(=O)Nc2ccc(OC(F)F)cc2)cc1 [Compound 131, N-[4-(difluoromethoxy)phenyl]-N′-(4-ethoxyphenyl)urea] | < 2000 nM |
| COC(=O)c1ccc(NC(=O)Nc2ccc(OC(F)F)cc2)cc1 [Compound 132, methyl 4-[({[4-(difluoromethoxy)phenyl]amino}carbonyl)amino]benzoate] | < 2000 nM |
| O=C(Nc1ccc(OC(F)F)cc1)Nc1ccc2c(c1)OC(=O)C2 [Compound 135, N-[4-(difluoromethoxy)phenyl]-N′-(2-oxo-2,3-dihydro-1-benzofuran-6-yl)urea] | < 2000 nM |
| O=C(Nc1ccc(OC(F)F)cc1)Nc1cc(OC(F)F)ncn1 [Compound 137, N-[4-(difluoromethoxy)phenyl]-N′-[6-(difluoromethoxy)pyrimidin-4-yl]urea] | < 2000 nM |

Results, then the compound that gave them:

| IC50 | Structure (SMILES) |
| --- | --- |
| < 2000 nM | O=C(Nc1ccc(OC(F)F)cc1)Nc1ccc(N2CCCCC2)cc1 [Compound 105, N-[4-(difluoromethoxy)phenyl]-N′-(4-piperidin-1-ylphenyl)urea] |
| < 2000 nM | O=C(Nc1ccc(OC(F)F)cc1)Nc1cc(C2CC2)n[nH]1 [Compound 106, N-(3-cyclopropyl-1H-pyrazol-5-yl)-N′-[4-(difluoromethoxy)phenyl]urea] |
| < 2000 nM | CS(=O)(=O)N1CCc2cc(NC(=O)Nc3ccc(OC(F)F)cc3)ccc21 [Compound 109, N-[4-(difluoromethoxy)phenyl]-N′-[1-(methylsu1fonyl)-2,3-dihydro-1H-indol-5-yl]urea] |
| < 2000 nM | O=C(Nc1ccc(OC(F)F)cc1)Nc1ccc(Br)nc1 [Compound 114, N-(6-bromopyridin-3-yl)-N′-[4-(difluoromethoxy)phenyl]urea] |
| < 2000 nM | Cc1noc(C)c1-c1cccc(NC(=O)Nc2ccc(OC(F)F)cc2)c1 [Compound 115, N-[4-(difluoromethoxy)phenyl]-N′-[3-(3,5-dimethylisoxazol-4-yl)phenyl]urea] |
| < 2000 nM | Cc1cc(-c2cccc(NC(=O)Nc3ccc(OC(F)F)cc3)c2)cc(C)n1 [Compound 120, N-[4-(difluoromethoxy)phenyl]-N′-[3-(2,6-dimethylpyridin-4-yl)phenyl]urea] |
| < 2000 nM | CCC(CC)Oc1ccc(-c2cccc(NC(=O)Nc3ccc(OC(F)F)cc3)c2)nc1NC [Compound 122, N-[4-(difluoromethoxy)phenyl]-N′-{3-[5-(1-ethylpropoxy)-6-(methylamino)pyridin-2-yl]phenyl}urea] |
| < 2000 nM | CCc1cncc(-c2cccc(NC(=O)Nc3ccc(OC(F)F)cc3)c2)n1 [Compound 124, N-[4-(difluoromethoxy)phenyl]-N′-[3-(6-ethylpyrazin-2-yl)phenyl]urea] |
| < 2000 nM | CCc1ccc(NC(=O)Nc2ccc3ncccc3c2)cc1 [Compound 128, N-(4-ethylphenyl)-N′-quinolin-6-ylurea] |
| < 2000 nM | O=C(Nc1ccc(OC(F)F)cc1)Nc1ccc2ncccc2c1 [Compound 129, N-[4-(difluoromethoxy)phenyl]-N′-quinolin-6-ylurea] |
| < 2000 nM | Cc1nc2ccc(NC(=O)Nc3ccc(OC(F)F)cc3)cc2o1 [Compound 130, N-[4-(difluoromethoxy)phenyl]-N′-(2-methyl-1,3-benzoxazol-6-yl)urea] |
| < 2000 nM | O=C(Nc1ccc(OC(F)F)cc1)Nc1ccc2[nH]ncc2c1 [Compound 133] |
| < 2000 nM | COC(=O)c1ccc(NC(=O)Nc2ccc(OC(F)F)cc2)cc1OC [Compound 134, methyl 4-[({[4-(difluoromethoxy)phenyl]amino}carbonyl)amino]-2-methoxybenzoate] |
| < 2000 nM | Nc1ncc(Br)cc1NC(=O)Nc1ccc(OC(F)F)cc1 [Compound 136, N-(2-amino-5-bromopyridin-3-yl)-N′-[4-(difluoromethoxy)phenyl]urea] |

— patent publication US20090239841A1, “Diaryl Ureas as CB1 Antagonists” (priority 2004, published 2009)
